Experimental data taken from PubChem BioAssay AID1918947 (Molecular Pharmacology Branch, DTP, NCI, 2023).
Several values for one entry are separate records, joined by “and”; a condition that tells them apart may be missing. Equal entries are not always repeated.

System: A498 complex spheroid viability
Assay: Anticancer human tumor A498 cell line growth inhibition;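 note: spheroids exposed to agents for seven days before readout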;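 for viability, T/C: 100% = DMSO vehicle-treated spheroids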
Conditions: for viability, T/C: stronger effect = lower value
Description: Multicellular complex tumor spheroid response to LSD1 Inhibitor Iadademstat in combination with a variety of drugs and investigational agents in selected tumor cell lines
The current study was undertaken to assess response to LSD1 inhibitors in combination with standard-of-care drugs and investigational agents in solid tumor complex spheroid models as well as in the K-562 leukemia. Complex spheroids include a stromal component modeled by human endothelial cells (HUVEC) and fibroblasts modeled by human mesenchymal stem cells (MSCs). The concentration ranges selected for each drug and investigational agent were based upon clinically achievable concentrations if the clinical Cmax of the agent was known.
Compounds. The drugs and investigational agents used in this study are listed on Table 1. All of the agents used, including staurosporine (NSC755774) and gemcitabine (NSC613327), were obtained from the Developmental Therapeutics Program, NCI. FDA-approved anticancer drugs are available from the NCI at http://dtp.nci.nih.gov/branches/dscb/oncology_drugset_explanation.html. Drugs and investigational agents were >95% pure by proton nuclear magnetic resonance (NMR) and liquid chromatography/mass spectrometry (LC/MS). Stock solutions were prepared at 400x in DMSO, stored at -70 degrees C, and diluted in fresh medium prior to their use. The final concentration of DMSO in cell culture wells never exceeded 0.25% (v/v). The FDA-approved anticancer drug set is available from the Developmental Therapeutics Program at https://dtp.cancer.gov/organization/dscb/obtaining/available_plates.htm. All drugs and investigational agents were tested over a range starting from a high concentration at or near the clinical Cmax and decreasing in half-log increments. If the clinical Cmax for an agent had not been determined, the highest concentration tested was 10 microM.
Cell Lines. The patient-derived cancer cell (PDC) lines: 292921-168-R-J2-PDC, K24384-001-R-PDC, and 521955-158-R2-J5-PDC pancreatic carcinomas, 556581-035-R-J1 ovarian carcinoma, 324938-238-R-J1-PDC, 855422-203-R-J1-PDC and 883617-216-R-J1-PDC urothelial bladder carcinomas, 743489-274-T-PDC renal cell carcinoma, 138582-R-J1 Merkel cell tumor, K60290-347-R-J1 and K57222-313-R-J1-PDC glioblastomas, 653999-131-R-J2-PDC, LG0703-F948-PDC, and 349418-098-R-PDC non-small cell lung carcinomas, 885512-296-R-J2-PDC, 171881-019-R-J1-PDC breast carcinomas and 186277-243-T-J2-PDC and 233499-124-R-J2-PDC colon carcinomas were obtained from the NCI Patient-Derived Models Repository (PDMR, https://pdmr.cancer.gov). The established cell lines NCI/ADR-RES (RRID:CVCL_14520 and OVCAR-5 (RRID:CVCL_1628) ovarian carcinomas, 786-O (RRID:CVCL_1051) and A498 (RRID:CVCL_A498) renal cell carcinoma, NCI-H211 (ATCC, cat. CRL-5824; RRID:CVCL_1529), NCI-H196 (ATCC, cat. CRL-5823, RRID:CVCL_1509), SW 1271 (ATCC, cat. CRL-2177, RRID:CVCL_1716) and NCI-H1876 (ATCC, cat. CRL-5902, RRID:CVCL_1503) small cell lung carcinomas, MDA-MB-231 (RRID:CVCL_0062) and MDA-MB-468 (RRID:CVCL_0419)breast carcinomas (10-12). Pooled donor human umbilical vein endothelial cells (HUVEC, Lonza, cat. CC-2519) and human mesenchymal stem cells (hMSC, Lonza, cat. PT-2501) were purchased from Lonza (Walkersville, MD).
Cell Culture. All cells were maintained in an incubator at 37 degrees C and 5% CO2 with 95% humidity. The PDC lines were cultured according to standard operating procedures established by the NCI PDMR (https://pdmr.cancer.gov). Briefly all PDCs were thawed and cultured in Matrigel-coated flasks prepared with a working solution of 1X Ham's F-12 nutrient mix, without supplementation (Invitrogen, Waltham, MA, cat. 11765054), 100 U/mL penicillin-streptomycin (Invitrogen, cat. 15140122), and 2.5% Matrigel (Corning Inc., Corning, NY, cat. 354248) for the first three passages. […]

With `CCN(c1cc(-c2ccc(CN3CCOCC3)cc2)cc(C(=O)NCc2c(C)cc(C)[nH]c2=O)c1C)C1CCOCC1` as the compound, how does the viability, T/C (compound 0.00949 µM) read?
Its viability, T/C is 98.7% and 101%.

What about the viability, T/C (compound 0.03 µM) of the same compound?
Its viability, T/C is 108% and 107%.

What about the viability, T/C (compound 0.0949 µM) of the same compound?
Its viability, T/C is 98.7% and 102%.

And the viability, T/C (compound 0.3 µM)?
The viability, T/C was 103%.

What about the viability, T/C (compound 0.949 µM) of the same compound?
The viability, T/C was 107% and 105%.

What about the viability, T/C (compound 3 µM) of the same compound?
The viability, T/C was 112% and 113%.

And the IC50 (curve of compound)?
The IC50 was > 3000 nM.

`COc1cc(Nc2ncc3c(n2)-c2ccc(Cl)cc2C(c2c(F)cccc2OC)=NC3)ccc1C(=O)O` + NC1CCC(NC2CC2c2ccccc2)CC1 was tested. Which IC50 (curve of first compound, second compound 0.1 µM) did it give?
The IC50 was 256 nM.

What about the IC50 (curve of first compound, second compound 0.316 µM) of the same compound?
Its IC50 is 454 nM.

What about the IC50 (curve of first compound, second compound 1 µM) of the same compound?
Its IC50 is 415 nM.

And the IC50 (curve of first compound, second compound 3.16 µM)?
The IC50 was 291 nM.

What about the IC50 (curve of first compound, second compound 10 µM) of the same compound?
Its IC50 is 523 nM.

What about the viability, T/C (second compound 0.1 µM, first compound 0.00316 µM) of the same compound?
The viability, T/C was 86.1%.

What about the viability, T/C (second compound 0.1 µM, first compound 0.01 µM) of the same compound?
The viability, T/C was 72.4%.

And the viability, T/C (second compound 0.1 µM, first compound 0.0316 µM)?
The viability, T/C was 66.2%.

And the viability, T/C (second compound 0.1 µM, first compound 0.1 µM)?
The viability, T/C was 56%.

What about the viability, T/C (second compound 0.1 µM, first compound 0.316 µM) of the same compound?
Its viability, T/C is 47.7%.

And the viability, T/C (second compound 0.1 µM, first compound 1 µM)?
Its viability, T/C is 43.2%.

And the viability, T/C (second compound 0.316 µM, first compound 0.00316 µM)?
The viability, T/C was 89.6%.

And the viability, T/C (second compound 0.316 µM, first compound 0.01 µM)?
The viability, T/C was 80.1%.

What about the viability, T/C (second compound 0.316 µM, first compound 0.0316 µM) of the same compound?
The viability, T/C was 74.5%.

And the viability, T/C (second compound 0.316 µM, first compound 0.1 µM)?
Its viability, T/C is 63%.

And the viability, T/C (second compound 0.316 µM, first compound 0.316 µM)?
Its viability, T/C is 50.5%.

What about the viability, T/C (second compound 0.316 µM, first compound 1 µM) of the same compound?
The viability, T/C was 45.9%.

And the viability, T/C (second compound 1 µM, first compound 0.00316 µM)?
The viability, T/C was 80.2%.

And the viability, T/C (second compound 1 µM, first compound 0.01 µM)?
The viability, T/C was 78.3%.

What about the viability, T/C (second compound 1 µM, first compound 0.0316 µM) of the same compound?
The viability, T/C was 73.4%.

What about the viability, T/C (second compound 1 µM, first compound 0.1 µM) of the same compound?
Its viability, T/C is 55.5%.

What about the viability, T/C (second compound 1 µM, first compound 0.316 µM) of the same compound?
Its viability, T/C is 57.1%.

And the viability, T/C (second compound 1 µM, first compound 1 µM)?
Its viability, T/C is 40.9%.

What about the viability, T/C (second compound 3.16 µM, first compound 0.00316 µM) of the same compound?
Its viability, T/C is 83.1%.

What about the viability, T/C (second compound 3.16 µM, first compound 0.01 µM) of the same compound?
The viability, T/C was 70%.

And the viability, T/C (second compound 3.16 µM, first compound 0.0316 µM)?
Its viability, T/C is 73.1%.

What about the viability, T/C (second compound 3.16 µM, first compound 0.1 µM) of the same compound?
The viability, T/C was 55.1%.

What about the viability, T/C (second compound 3.16 µM, first compound 0.316 µM) of the same compound?
Its viability, T/C is 51%.

And the viability, T/C (second compound 3.16 µM, first compound 1 µM)?
Its viability, T/C is 39.1%.

What about the viability, T/C (second compound 10 µM, first compound 0.00316 µM) of the same compound?
Its viability, T/C is 73%.

What about the viability, T/C (second compound 10 µM, first compound 0.01 µM) of the same compound?
Its viability, T/C is 64.3%.

And the viability, T/C (second compound 10 µM, first compound 0.0316 µM)?
The viability, T/C was 72.3%.

What about the viability, T/C (second compound 10 µM, first compound 0.1 µM) of the same compound?
The viability, T/C was 61.5%.

What about the viability, T/C (second compound 10 µM, first compound 0.316 µM) of the same compound?
The viability, T/C was 56.8%.

What about the viability, T/C (second compound 10 µM, first compound 1 µM) of the same compound?
The viability, T/C was 42.1%.

Which viability, T/C (compound 0.0316 µM) does the source give for `CC1(C)CCC(CN2CCN(c3ccc(C(=O)NS(=O)(=O)c4ccc(NCC5CCOCC5)c([N+](=O)[O-])c4)c(Oc4cnc5[nH]ccc5c4)c3)CC2)=C(c2ccc(Cl)cc2)C1` here?
The viability, T/C was 103% and 98.6%.

And the viability, T/C (compound 0.1 µM)?
The viability, T/C was 107% and 105%.

What about the viability, T/C (compound 0.316 µM) of the same compound?
Its viability, T/C is 97.5% and 95.6%.

And the viability, T/C (compound 1 µM)?
The viability, T/C was 93% and 88.7%.

What about the viability, T/C (compound 3.16 µM) of the same compound?
Its viability, T/C is 74.2% and 67.7%.

What about the viability, T/C (compound 10 µM) of the same compound?
The viability, T/C was 6.84% and 8.34%.

And the IC50 (curve of compound)?
Its IC50 is 4720 nM and 4390 nM.
